In patent publication US20120071475A1, “UREA DERIVATIVES HAVING PI3K-INHIBITING ACTIVITY” (SHIONOGI & CO., LTD., priority 2009, published 2012):

What was measured:
AKT phosphorylation = AKT phosphorylation inhibitory activity in MCP-1 stimulated THP-1 cells (sandwich ELISA); assay type: cell-based, Human; settings: Homo sapiens, compound at 1 μmol/L, MCP-1 stimulation, read-out: AKT phosphorylation inhibition ratio
Method: (1) The AKT phosphorylation inhibitory activity of a compound was evaluated according to the following procedure. (2) Human monocyte-like cell line THP-1 was washed with RPMI-1640 media, incubated in the presence of 5% CO2 at 37° C. for 3 hours, washed with Hank's balanced salt solution (HBSS), adjusted to a cell concentration of 6.7×10^6/mL, and then used in an experiment. (3) 30 μL of the cell suspension and 60 μL of each compound solution containing 0.2% DMSO/HBSS were mixed and then preincubated at 37° C. for 5 minutes. 30 μL of HBSS containing 1.2 μg/mL of MCP-1 was added thereto and then incubated for 60 seconds at 37° C. (4) 30 μL of a cell lysate (the final concentrations: 20 mmol/L Tris-HCl (pH 7.5), 150 mmol/L NaCl, 1 mmol/L EDTA, 1 mmol/L EDTA, 1% Triton X-100, 2.5 mmol/L sodium pyrophosphate, 1 mmol/L β-glycerophosphate, 1 mmol/L Na3VO4, 1 μg/ml leupeptin, 50 nmol/L APMSF) was added thereto to lyse cells. (5) The amount of AKT phosphorylation in the cell solution was measured by sandwich ELISA method using anti-Phospho-Akt (Ser473) antibody and anti-AKT1 antibody. (6) Anti-Phospho-Akt (Ser473) antibodies or anti-AKT1 antibodies were immobilized onto the solid phase of a micro well plate. The prepared cell lysate was added to the micro well plate, incubated, and then washed with ELISA wash solution. (7) An anti-AKT1 antibody or anti-Phospho-Akt (Ser473) antibody, which forms a counterpart to an antibody immobilized on the solid phase, was added thereto, incubated, washed similarly, and then reacted with an HRP-labeled anti-mouse IgG antibody. (8) After incubating for 30 minutes and then washing similarly, 100 μL of TMB (3,3′,5,5″-tetramethylbenzidine) was added thereto, followed by reacting for 30 minutes. (9) 100 μL of stop solution was added to quench the color reaction, and then the absorbance at 450 nm was measured. (10) The amount of AKT phosphorylation in a sample in the absence of a compound was defined as 100% activity, and the amount of AKT phosphorylation in a sample in the absence of MCP-1 was defined as 0% activity to calculate an inhibition ratio of each compound. The measurement was performed for a 1 μmol/L solution of each compound.

hERG channel (IKr) = molecular target: T1, hERG channel (IKr) (Homo sapiens, UniProt Q12809); experiment: hERG test (whole-cell patch-clamp, IKr in HEK293 cells); assay type: cell-based; settings: human, HEK293 cells expressing hERG channel, pH 7.4, inhibition of maximum tail current (IKr), compound 1 μM
T1 construct: expressed in transfected cells; host or cells: HEK293
T1 sequence (Q12809 whole entry): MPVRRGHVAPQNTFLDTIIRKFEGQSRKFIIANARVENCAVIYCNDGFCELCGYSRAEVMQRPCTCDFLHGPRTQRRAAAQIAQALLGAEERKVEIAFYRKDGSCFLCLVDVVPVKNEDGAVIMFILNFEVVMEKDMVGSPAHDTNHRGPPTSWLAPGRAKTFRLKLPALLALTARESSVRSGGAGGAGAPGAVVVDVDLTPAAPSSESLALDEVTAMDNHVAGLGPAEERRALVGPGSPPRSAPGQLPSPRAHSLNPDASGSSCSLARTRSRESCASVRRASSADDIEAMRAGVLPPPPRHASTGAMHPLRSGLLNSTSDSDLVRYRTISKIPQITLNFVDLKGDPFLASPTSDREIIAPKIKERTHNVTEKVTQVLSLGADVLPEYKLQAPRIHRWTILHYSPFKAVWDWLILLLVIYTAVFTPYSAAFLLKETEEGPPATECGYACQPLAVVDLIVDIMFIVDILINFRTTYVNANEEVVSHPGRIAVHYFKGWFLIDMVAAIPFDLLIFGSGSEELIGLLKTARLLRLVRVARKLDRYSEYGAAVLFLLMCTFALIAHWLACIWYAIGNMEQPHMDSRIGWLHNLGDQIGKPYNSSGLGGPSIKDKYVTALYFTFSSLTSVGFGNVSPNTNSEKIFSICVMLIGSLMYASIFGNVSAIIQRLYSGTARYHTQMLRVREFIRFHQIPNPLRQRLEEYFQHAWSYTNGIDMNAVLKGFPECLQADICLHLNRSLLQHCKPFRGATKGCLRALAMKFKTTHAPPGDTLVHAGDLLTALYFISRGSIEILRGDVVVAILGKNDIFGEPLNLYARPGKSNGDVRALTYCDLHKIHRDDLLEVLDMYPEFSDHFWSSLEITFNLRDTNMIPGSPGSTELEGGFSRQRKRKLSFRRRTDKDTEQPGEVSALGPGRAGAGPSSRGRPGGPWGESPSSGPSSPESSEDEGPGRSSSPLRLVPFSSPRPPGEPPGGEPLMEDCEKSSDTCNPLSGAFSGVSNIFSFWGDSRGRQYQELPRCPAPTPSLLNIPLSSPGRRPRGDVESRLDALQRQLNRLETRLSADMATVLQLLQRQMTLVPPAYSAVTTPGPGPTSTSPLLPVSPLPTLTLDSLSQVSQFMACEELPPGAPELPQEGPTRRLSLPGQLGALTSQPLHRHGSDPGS
Text: For the purpose of risk evaluation of QT interval extension of electrocardiogram, the activity on delayed rectification K^+ current (IKr), which plays an important role in a cardiac ventricle repolarization process, was examined using the HEK293 cell that was made to express human ether-a-go-go related gene (hERG) channel.
Using an automatic patch-clamp system (PatchXpress 7000A, Axon Instruments Inc.), by a whole-cell patch-clamp method, after the cell was maintained at a membrane potential of −80 mV, IKr induced upon applying depolarizing stimulation of +50 mV for 2 seconds and further applying repolarizing stimulation of −50 mV for 2 seconds was recorded. After generated electric current became stable, a test substance dissolved at an intended concentration in extracellular fluid (137 mmol/L NaCl, 4 mmol/L KCl, 1.8 mmol/L CaCl2.2H2O, 1 mmol/L MgCl2.6H2O, 10 mmol/L glucose, 10 mmol/L HEPES (4-(2-hydroxyethyl)-1-piperazineethanesulfonic acid), pH=7.4) was applied to the cell for 10 minutes under room temperature condition. From the obtained IKr, the absolute value of the maximum tail current was measured using analysis software (DataXpress ver. 1, Molecular Devices Corporation) and the value of the electric current in a maintained membrane potential as baseline. Moreover, an inhibition ratio for the maximum tail current prior to the application of the test substance was calculated and then compared with a group of media-application (0.1% dimethylsulfoxide solution) to evaluate influence of the test substance on IKr.

PI3Kγ [1] = molecular target: T2, PI3Kγ (Homo sapiens, UniProt P48736); experiment: PI3Kγ inhibitory activity (PI3-kinase HTRF assay, inhibition ratio); assay type: biochemical; settings: 0.5 h, compound at 10 μmol/L; read-out: PI3Kg Inhibition Ratio % (10 μM)
T2 sequence (P48736 whole entry, species assumed): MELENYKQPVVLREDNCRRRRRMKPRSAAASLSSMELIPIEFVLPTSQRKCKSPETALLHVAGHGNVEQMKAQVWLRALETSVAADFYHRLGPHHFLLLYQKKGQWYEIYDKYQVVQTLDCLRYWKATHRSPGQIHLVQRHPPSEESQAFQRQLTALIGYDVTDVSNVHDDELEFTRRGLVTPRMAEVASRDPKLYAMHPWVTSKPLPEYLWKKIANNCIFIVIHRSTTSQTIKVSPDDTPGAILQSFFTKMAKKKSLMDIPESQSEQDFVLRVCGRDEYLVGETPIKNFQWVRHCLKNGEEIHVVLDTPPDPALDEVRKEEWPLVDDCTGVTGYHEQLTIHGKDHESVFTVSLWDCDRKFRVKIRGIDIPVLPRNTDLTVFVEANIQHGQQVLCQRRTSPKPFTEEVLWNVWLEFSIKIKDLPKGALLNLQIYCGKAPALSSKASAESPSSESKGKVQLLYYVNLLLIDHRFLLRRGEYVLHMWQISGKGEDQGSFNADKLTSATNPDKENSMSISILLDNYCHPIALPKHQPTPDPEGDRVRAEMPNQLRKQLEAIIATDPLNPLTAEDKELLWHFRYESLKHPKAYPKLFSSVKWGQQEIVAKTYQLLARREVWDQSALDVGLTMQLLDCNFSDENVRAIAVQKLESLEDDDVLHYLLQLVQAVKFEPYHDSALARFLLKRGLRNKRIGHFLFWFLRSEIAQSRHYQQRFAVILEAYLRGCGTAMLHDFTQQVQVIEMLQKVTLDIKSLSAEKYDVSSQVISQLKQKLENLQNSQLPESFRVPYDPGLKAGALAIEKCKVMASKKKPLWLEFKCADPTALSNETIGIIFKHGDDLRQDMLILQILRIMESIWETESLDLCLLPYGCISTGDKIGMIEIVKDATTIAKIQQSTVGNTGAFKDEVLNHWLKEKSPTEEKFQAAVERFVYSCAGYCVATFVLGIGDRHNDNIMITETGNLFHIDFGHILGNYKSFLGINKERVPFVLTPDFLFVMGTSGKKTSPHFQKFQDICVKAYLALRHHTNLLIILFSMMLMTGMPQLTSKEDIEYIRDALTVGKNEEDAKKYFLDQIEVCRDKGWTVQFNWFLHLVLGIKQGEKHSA
Procedure, shortened: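 Compound at 10 μmol/L preincubated 10 min with PI3Kγ and PIP2 substrate, then reacted with ATP for 30 minutes at room temperature; the compound, substrate and ATP figures as printed (40 μmol/L each) are solution concentrations. HTRF 665/620 nm ratio read after 18 hours. Inhibition ratio calculated against no-compound (100%) and no-enzyme (0%) controls.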

CYP3A4 = molecular target: T3, CYP3A4 (Homo sapiens, UniProt P08684); experiment: CYP3A4 fluorescence MBI test; assay type: in vitro ADME; settings: difference in IC50 with 0 or 30 minutes pre-reaction; CYP3A4 expressed in E. coli, substrate 7-BFC
T3 construct: host or cells: E. coli
T3 sequence (P08684 whole entry): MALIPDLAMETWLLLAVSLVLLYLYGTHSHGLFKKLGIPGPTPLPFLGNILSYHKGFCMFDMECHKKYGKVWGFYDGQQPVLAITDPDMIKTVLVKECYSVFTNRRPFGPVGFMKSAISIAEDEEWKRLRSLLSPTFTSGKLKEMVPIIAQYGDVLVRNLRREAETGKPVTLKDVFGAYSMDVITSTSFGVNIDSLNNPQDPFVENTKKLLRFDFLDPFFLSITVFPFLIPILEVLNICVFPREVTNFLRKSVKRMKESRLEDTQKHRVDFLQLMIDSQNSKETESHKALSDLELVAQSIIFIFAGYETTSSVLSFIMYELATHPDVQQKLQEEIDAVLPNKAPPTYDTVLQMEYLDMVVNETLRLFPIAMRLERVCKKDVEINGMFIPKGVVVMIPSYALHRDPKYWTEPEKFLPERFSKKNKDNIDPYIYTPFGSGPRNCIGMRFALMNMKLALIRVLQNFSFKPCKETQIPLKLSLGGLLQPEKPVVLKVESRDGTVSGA
Procedure, shortened: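 E. coli-expressed CYP3A4 debenzylating 5.6 μmol/L 7-BFC to fluorescent 7-HFC (Ex 420/Em 535 nm) in K-Pi pH 7.4 at 25° C, 15 min reaction. NADPH pre-incubation of 0 or 30 min, with 10-fold dilution before reaction. IC50 from 0.625–20 μmol/L (6 points); (+) for an IC50 shift ≥5 μmol/L, (−) for ≤3 μmol/L.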

[2] = test system: CYP1A2, CYP2C9, CYP2C19, CYP2D6 and CYP3A4 (one value for the five species); experiment: CYP inhibition test, five CYP species together (5CYPs_IC50; pooled human liver microsome); assay type: in vitro ADME; settings: human, microsomes
Text: O-de-ethylation of 7-ethoxyresorufin (CYP1A2), methyl-hydroxylation of tolbutamide (CYP2C9), 4′-hydroxylation of mephenyloin (CYP2C19), O-demethylation of dextromethorphan (CYP2D6), and hydroxylation of terfenadine (CYP3A4), which are typical substrate for metabolic reactions of human main CYP5 molecular species (CYP1A2, 2C9, 2C19, 2D6, and 3A4), were adopted as indexes.
The reaction conditions are as follows: substrate: 0.5 μmol/L of ethoxyresorufin (CYP1A2), 100 μmol/L of tolbutamide (CYP2C9), 50 μmol/L of S-mephenyloin (CYP2C19), 5 μmol/L of dextromethorphan (CYP2D6), and 1 μmol/L of terfenadine (CYP3A4); reaction time; 15 minutes; reaction temperature: 37° C.; enzyme: pooled human liver microsome 0.2 mg protein/mL; test drug concentration: 1, 5, 10, and 20 μmol/L (4 points).
In a 96-well plate, as a reaction solution, five kinds of substrates, a human liver microsome, and a test drug were added to 50 mmol/L Hepes buffer solution in the aforementioned ratio. A coenzyme NADPH was added to start a metabolic reaction, which is an index. After reacting at 37° C. for 15 minutes, a solution of methanol/acetonitrile (1/1 (v/v)) was added to quench the reaction. After centrifugation at 3000 rpm for 15 minutes, resorufin (CYP1A2 metabolite) in the supernatant was quantitated with a fluorescence multilabel counter, and hydroxylated tolbutamide (CYP2C9 metabolite), 4′-hydroxylated mephenyloin (CYP2C19 metabolite), […], terfenadine in alcohol form (CYP3A4 metabolite) were quantitated with LC/MS/MS.
The case wherein only DMSO (a solvent which dissolved a drug) was added to a reaction system was defined as a control (100%). When a test drug solution was added, the remaining activity (%) at each concentration was calculated, and then IC50 was calculated with a concentration and an inhibition ratio by an inverse estimation using a logistic model.

[3] = Metabolic stability test (pooled human liver microsome); assay type: in vitro ADME; settings: percentage of test compound remained after 30 minutes, pooled human liver microsome 0.5 mg protein/mL, 1 mmol/L NADPH, 37° C., compound 0.5 μM
Procedure, shortened: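 Pooled human liver microsomes (0.5 mg protein/mL) incubated with compound and 1 mmol/L NADPH at 37° C. in pH 7.4 Tris buffer for 0 or 30 min. Parent quantified by LC/MS/MS after methanol/acetonitrile quench; value is % remaining at 30 min versus 0 min.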

PI3Kγ [4] = molecular target: T2, PI3Kγ; experiment: PI3Kγ inhibitory activity (Ki value); assay type: biochemical; settings: read-out: PI3Kγ Ki value
Method: The PI3Kγ inhibitory activity (Ki value) of a compound was evaluated according to the following procedure:
5 μL of a compound solution containing 10% DMSO and […] of a compound was changed to 5 μL of a compound solution containing 10% DMSO and either 200, 64, 20, 6.4, 2, 0.64, or 0.20 μmol/L of the compound (optionally, this is diluted to a lower concentration). Using a method similar to the method for measuring PI3Kγ inhibitory activity, inhibition ratios of PI3Kγ were measured in the presence of the compound at 50, 16, 5, 1.6, 0.5, 0.16, and 0.05 μmol/L (optionally, a lower concentration). Then an IC50 value was calculated by a logistic approximation method or the linear regression method using two concentrations that cross 50% inhibition. Separately, the ATP concentration in the reaction solution (40 μmol/L ATP, 10 mmol/L MgCl2, 5 mmol/L DTT) at the time of the start of a reaction in the absence of the compound was changed to 80, 40, 20, 10, 5, 2.5, 1.25, or 0.625 μmol/L. Then, HTRF ratios were measured by a similar method. The value obtained by subtracting the HTRF ratio at each ATP concentration from the HTRF ratio in the absence of PI-3 kinase y was defined as the value obtained by multiplying reaction rate (v) at each ATP concentration with a constant. The Michaelis-Menten constant Km was then calculated by the Lineweaver-Burk plot method. The Ki value of a compound was calculated by the following formula wherein “μM” denotes “μmol/L.”
Ki value ═IC50 value/(1+test ATP concentration (μM)/Km (μM))

| inhibition at 10 µM (PI3Kγ [1]) [%] | IC50 at 15 min [2] [µM] | hLMS_ox(at 0.5 μM) % [3] [%] | Ki (PI3Kγ [4]) [µM] | SMILES | inhibition at 1 µM (AKT phosphorylation) [%] | inhibition at 10 min, 1 µM (hERG channel (IKr)) [%] | MBI (CYP3A4) |
| --- | --- | --- | --- | --- | --- | --- | --- |
| ≥ 95 | – | – | – | COc1cc(N2CCc3nc(NC(=O)Nc4cnccc4C(=O)NC(C)C)sc3C2)nc(OC)n1 [Compound I-27] | 94.1 | 2 | (−) (When 3 μmol/L or less, the compound is shown as (−)) |
| – | ≥ 10 | – | – | COc1ccc(N2CCc3nc(NC(=O)Nc4ccccc4C(=O)NC(C)C)sc3C2)cn1 [Compound I-50] | – | – | – |
| – | ≥ 10 | – | – | COc1cc(N2CCc3nc(NC(=O)Nc4ccccc4C(=O)C(C)C)sc3C2)nc(OC)n1 [Compound I-64] | – | – | – |
| – | ≥ 10 | – | – | COc1cc(N2CCc3nc(NC(=O)Nc4ccc(F)cc4C(=O)NC(C)C)sc3C2)cnc1OC [Compound I-105] | – | – | – |
| – | ≥ 10 | 83.9 | – | COc1cc(N2CCc3nc(NC(=O)Nc4cn(C)nc4C(=O)NC(C)C)sc3C2)nc(OC)n1 [Compound I-106] | – | – | – |
| – | > 20 | – | – | COc1cc(N2CCc3nc(NC(=O)Nc4ccccc4C(O)CCC(C)C)sc3C2)nc(OC)n1 (stereo not drawn) [Compound I-117] | – | – | – |
| ≥ 95 | – | – | – | CNS(=O)(=O)c1cncc(N2CCc3nc(NC(=O)Nc4ccccc4C(=O)NC(C)C)sc3C2)c1 [Compound I-129] | ≥ 95 | 5.5 | (−) (When 3 μmol/L or less, the compound is shown as (−)) |
| ≥ 95 | – | 85.8 | – | COc1cc(N2CCc3nc(NC(=O)Nc4ccccc4C(=O)NC4CCOC4)sc3C2)nc(OC)n1 (stereo not drawn) [Compound I-135] | 89 | 1.8 | – |
| 77 | – | – | 0.047 | Cc1nc(NC(=O)Nc2ccccc2C(=O)NC(C)C)sc1-c1csc(S(=O)(=O)N2CCC(O)CC2)c1 [Compound I-146] | ≥ 95 | – | – |
| ≥ 95 | – | 96.8 | – | COc1cc(N2CCc3nc(NC(=O)Nc4cn(C)nc4C(=O)NCC#N)sc3C2)nc(OC)n1 [Compound I-152] | ≥ 95 | 4.7 | – |
| 90 | – | 95.9 | – | COc1cc(N2CCc3nc(NC(=O)Nc4cn(C)nc4C(=O)N[C@@H](C)CO)sc3C2)nc(OC)n1 [Compound I-155] | ≥ 95 | 2.9 | – |
| 87 | – | 96.2 | – | COc1cc(N2CCc3nc(NC(=O)Nc4ccccc4C(=O)NCC(C)O)sc3C2)nc(OC)n1 (stereo not drawn) [Compound I-157] | ≥ 95 | 0.4 | – |
| 77 | – | 85.6 | – | COc1cc(N2CCc3nc(NC(=O)Nc4ccccc4C(=O)NC(C)C#N)sc3C2)nc(OC)n1 (stereo not drawn) [Compound I-159] | ≥ 95 | 3.8 | – |
| ≥ 95 | – | 94.4 | – | Cc1cc(N2CCc3nc(NC(=O)Nc4ccccc4C(=O)N[C@H](C)CO)sc3C2)nc(Cl)n1 [Compound I-169] | 75 | 2.7 | – |
| – | > 20 | – | – | CC(C)NC(=O)c1ccccc1NC(=O)Nc1nc2c(s1)CN(c1ccc(C(F)(F)F)cc1)CC2 [Compound I-208] | – | – | – |
| ≥ 95 | ≥ 10 | – | – | CC(=O)c1cccc(-c2ccc3nc(NC(=O)Nc4ccccc4OCCC(C)C)sc3n2)c1 [Compound I-219] | – | – | – |
| – | ≥ 10 | – | – | CC(=O)c1cccc(-c2ccc3nc(NC(=O)Nc4ccccc4N4CCCC4=O)nn3c2)c1 [Compound I-224] | – | – | – |
